Data taken from patent US20210278408A1, “METHODS OF TREATMENT OF CANCER WITH SUBSTITUTED PYRROLE AND PYRAZOLE COMPOUNDS AND DIAGNOSIS OF CANCERS SUSCEPTIBLE TO TREATMENT WITH SUBSTITUTED PYRROLE AND PYRAZOLE COMPOUNDS” (Bantam Pharmaceutical, LLC, priority 2018, published 2021).

Test system: 406 cancer cell lines, 73 blood tumor cell lines and 333 solid tumor cell lines
Assay: OmniScreen drug efficacy on cancer cell lines, fitted area under curve (AUC) of dose-response
Format: cell-based
Parameters: AUCs: unit not given beside the values
Protocol: Predictive biomarkers for genes indicating responsiveness to a therapeutic compound can be determined using a cell-based screening technique, such as that offered under the name OmniScreen™ (Crown Biosciences).
In one experimental study, predictive biomarkers were determined for Compound A197 efficacy on 406 cancer cell lines, 73 blood tumor cell lines and 333 solid tumor cell lines. Genomic data for the cell lines was downloaded from the Cancer Cell Line Encyclopedia Project (CCLE) website. Driver mutations were predicted on the Cancer Genome Interpreter Database; only driver mutations were used in the mutation related analysis.
Dose-response curves were fitted by the 4-parameter model:
in which top and bottom are the two asymptotes of the sigmoidal curve, EC50 is the relative IC50, and concentration x is in log−10 scale. To accommodate experimental errors, Bottom was allowed to go down to −20%, and Top was allowed to go up to 120%. The fitting error of a model is measured by
σECS0 is the standard error of EC50. In general, such fitting error should be less than 40% for a model to be considered acceptable. The fitted area under curve (AUC) is calculated by
where a=log(3, 10) and b=log(30000,10).

For `Cc1nn(-c2nc(-c3ccc(C(F)(F)F)cc3)c(SC(C)C)s2)c(C(=O)O)c1-c1cccc(F)c1` [Compound A197, 4-(3-fluorophenyl)-1-(5-(isopropylthio)-4-(4-(trifluoromethyl)phenyl)thiazol-2-yl)-3-methyl-1H-pyrazole-5-carboxylic acid], the AUCs (22Rv1, Prostate) was 2.52, the AUCs (8505C, H&N/Thyroid) was 3.78 and the AUCs (A253, Submaxillary gland) was 3.32. For the same compound, the AUCs (A875, Skin) was 3.84, the AUCs (A2058, Skin) was 3.64 and the AUCs (A2780, Ovary) was 2.43. The AUCs (A2780cis, Ovary) was 2.68, the IC50 (A2780cis, Ovary) was 541 nM and the AUCs (A-172, Brain&Nerves) was 3.29. For the same compound, the AUCs (A-204, Muscle) was 3.66, the AUCs (A-375, Skin) was 3.42 and the AUCs (A-427, Lung) was 3.59. For the same compound, the AUCs (A-431, Skin) was 2.96, the AUCs (A-673, Muscle) was 2.78 and the AUCs (AGS, Stomach/Gastric) was 3.63. It also gave an IC50 (AGS, Stomach/Gastric) of 205000 nM, an AUCs (AN3 CA, Uterus) of 3.88 and an AUCs (ARH-77, Blood) of 3.22. The AUCs (ASH-3, H&N/Thyroid) was 3.41, the “responsiveness of blood tumor cell lines versus solid tumor cell lines” value (AUC, Welch's t-test P-value 2.3e-16) was “more likely to be responsive” and the AUCs (AsPC-1, Pancreas) was 3.59. For the same compound, the AUCs (BT-20, Breast) was 3.2, the AUCs (BT-483, Breast) was 3.43 and the AUCs (BxPC-3, Pancreas) was 2.97. For the same compound, the AUCs (C4-2, Prostate) was 3.61, the AUCs (C666-1, Nose) was 3.15 and the AUCs (C-33 A, Uterus) was 3.7. It also gave an AUCs (CAL-27, Tongue) of 3.17, an AUCs (CFPAC-1, Pancreas) of 3.56 and an AUCs (COV644, Ovary) of 3.69. The AUCs (Ca Ski, Uterus) was 4.35, the AUCs (Caki-2, Kidney) was 3.53 and the AUCs (Calu-6, Lung) was 3.21. The AUCs (Caov-3, Ovary) was 3.65, the AUCs (Capan-1, Pancreas) was 3.82 and the AUCs (Capan-2, Pancreas) was 3.28. The AUCs (CoC1, Ovary) was 2.95, the AUCs (CoC1/DDP, Ovary) was 3.33 and the AUCs (D283 Med, Brain&Nerves) was 3.28. For the same compound, the AUCs (DMS 79, Lung) was 4.09, the AUCs (DMS 114, Lung) was 3.56 and the AUCs (DU 145, Prostate) was 2.99. The AUCs (DV-90, Lung) was 3.1, the AUCs (Daoy, Brain&Nerves) was 3.14 and the AUCs (Detroit 562, Pharynx) was 3.54. For the same compound, the AUCs (DoTc2 4510, Uterus/Cervix) was 3.9, the AUCs (EBC-1, Lung) was 3.47 and the AUCs (ES-2, Ovary) was 3.75. The IC50 (ES-2, Ovary) was 70800 nM, the AUCs (FaDu, Pharynx) was 2.9 and the AUCs (GTL-16, Stomach/Gastric) was 3.18. It also gave an AUCs (HCC 94, Uterus) of 2.92, an IC50 (HCC 94, Uterus) of 806 nM and an AUCs (HCC1187, Breast) of 3.63. It also gave an AUCs (HCC1500, Breast) of 3.27, an AUCs (HCC1806, Breast) of 3.39 and an AUCs (HCC1937, Breast) of 3.36. For the same compound, the AUCs (HCC1954, Breast) was 3.44, the AUCs (HCC2218, Breast) was 3.48 and the AUCs (HCC2935, Lung) was 3.49. The AUCs (HCCC-9810, Liver) was 3.64, the AUCs (HCCLM3, Liver) was 3.87 and the AUCs (HEC-1-A, Uterus) was 3.28. For the same compound, the AUCs (HEC-1-B, Uterus) was 2.85, the AUCs (HGC-27, Stomach/Gastric) was 2.39 and the AUCs (HLE, Liver) was 3.3. It also gave an AUCs (HLF, Liver) of 3.43, an AUCs (HPAC, Pancreas) of 2.98 and an AUCs (HT-3, Uterus/Cervix) of 3.91. The IC50 (HT-3, Uterus/Cervix) was 30100 nM, the AUCs (HT-55, Large intestine/Colorectum) was 4 and the AUCs (HT-1080, Soft tissue) was 3.07. It also gave an AUCs (HT-1376, Bladder) of 4.11, an AUCs (HUH-1, Liver) of 3.81 and an AUCs (HeLa 229, Cervix) of 3.37. For the same compound, the AUCs (Hep3B, Liver) was 3.5, the IC50 (Homo sapiens, 22Rv1, 22Rv1, Prostate) was 1090 nM and the IC50 (Homo sapiens, A204, A-204, Muscle) was 184000 nM. The IC50 (Homo sapiens, A673, A-673, Muscle) was 701 nM, the IC50 (Homo sapiens, A2780, A2780, Ovary) was 863 nM and the IC50 (Homo sapiens, A-375, A-375, Skin) was 28100 nM. The IC50 (Homo sapiens, A-431, A-431, Skin) was 1110 nM, the IC50 (Homo sapiens, AN3-CA, AN3 CA, Uterus) was 45600 nM and the IC50 (Homo sapiens, BXPC-3, BxPC-3, Pancreas) was 351 nM. The IC50 (Homo sapiens, C6661, C666-1, Nose) was 24600 nM, the IC50 (Homo sapiens, CAL-27, CAL-27, Tongue) was 3420 nM and the IC50 (Homo sapiens, Ca-Ski, Ca Ski, Uterus) was 41300 nM. It also gave an IC50 (Homo sapiens, DMS-79, DMS 79, Lung) of 420000 nM, an IC50 (Homo sapiens, DU-145, DU 145, Prostate) of 835 nM and an IC50 (Homo sapiens, FaDu, Pharynx) of 341 nM. For the same compound, the IC50 (Homo sapiens, HEC-1B, HEC-1-B, Uterus) was 438 nM, the IC50 (Homo sapiens, HGC-27, HGC-27, Stomach/Gastric) was 513 nM and the IC50 (Homo sapiens, HPAC, Pancreas) was 467 nM. For the same compound, the IC50 (Homo sapiens, HT-1080, HT-1080, Soft tissue) was 990 nM, the IC50 (Homo sapiens, HuTu80, Hutu 80, Small intestine/Duodenum) was 880 nM and the IC50 (Homo sapiens, Ishikawa, Uterus) was 297 nM. For the same compound, the IC50 (Homo sapiens, JEG-3, JEG-3, Placenta) was 993 nM, the IC50 (Homo sapiens, LNCaP-Clone-FGC, LNCaP clone FGC, Prostate) was 172 nM and the IC50 (Homo sapiens, ME-180, ME-180, Uterus) was 562 nM. It also gave an IC50 (Homo sapiens, MES-SA, Uterus) of 480 nM, an IC50 (Homo sapiens, MES-SA/Dx5, MES-SA/DX5, Uterus) of 342 nM and an IC50 (Homo sapiens, MIA PaCa-2, MIA PaCa-2, Pancreas) of 2910 nM. It also gave an IC50 (Homo sapiens, MKN-1, MKN1, Stomach/Gastric) of 5360 nM, an IC50 (Homo sapiens, NCI-H146, NCI-H146, Lung) of 42600 nM and an IC50 (Homo sapiens, NCI-H187, NCI-H187, Lung) of 8360 nM. It also gave an IC50 (Homo sapiens, NCI-H226, NCI-H226, Lung) of 2230 nM, an IC50 (Homo sapiens, NCI-H446, NCI-H446, Lung) of 30500 nM and an IC50 (Homo sapiens, NCI-H526, NCI-H526, Lung) of 212000 nM. The IC50 (Homo sapiens, NCI-H1648, NCI-H1648, Lung) was 72900 nM, the IC50 (Homo sapiens, NCI-H2452, NCI-H2452, Lung) was 70800 nM and the IC50 (Homo sapiens, NUGC-3, NUGC-3, Stomach/Gastric) was 26500 nM. It also gave an IC50 (Homo sapiens, NUGC-4, NUGC-4, Stomach/Gastric) of 1350 nM, an IC50 (Homo sapiens, OVCAR-8, OVCAR-8, Ovary) of 1020 nM and an IC50 (Homo sapiens, PANC-1, PANC-1, Pancreas) of 2610 nM. The IC50 (Homo sapiens, RL95-2, RL95-2, Uterus) was 416 nM, the IC50 (Homo sapiens, RPMI-2650, RPMI-2650, Nose) was 843 nM and the IC50 (Homo sapiens, SCC-4, SCC-4, Tongue) was 833000 nM. It also gave an IC50 (Homo sapiens, SCC-9, SCC-9, Tongue) of 26100 nM, an IC50 (Homo sapiens, SK-MEL-5, SK-MEL-5, Skin) of 75100 nM and an IC50 (Homo sapiens, SK-MEL-28, SK-MEL-28, Skin) of 105000 nM. The IC50 (Homo sapiens, SK-OV-3, SK-OV-3, Ovary) was 84900 nM, the IC50 (Homo sapiens, SNU1, SNU-1, Stomach/Gastric) was 12600 nM and the IC50 (Homo sapiens, SNU-5, SNU-5, Stomach/Gastric) was 1950 nM. For the same compound, the IC50 (Homo sapiens, SW626, SW626, Ovary) was 415000 nM, the IC50 (Homo sapiens, SW756, SW756, Ovary) was 37900 nM and the IC50 (Homo sapiens, SW982, SW982, Soft tissue) was 66000 nM. The IC50 (Homo sapiens, WM 266-4, WM-266-4, Skin) was 32400 nM, the AUCs (HuCCT1, Liver) was 3.24 and the AUCs (Hutu 80, Small intestine/Duodenum) was 2.69. It also gave an AUCs (IM95m, Stomach/Gastric) of 2.9, an IC50 (IM95m, Stomach/Gastric) of 601 nM and an AUCs (Ishikawa, Uterus) of 2.44. The AUCs (JAR, Placenta) was 2.57, the IC50 (JAR, Placenta) was 673 nM and the AUCs (JEG-3, Placenta) was 3.2. It also gave an AUCs (JHH-5, Liver) of 3.56, an AUCs (JIMT-1, Breast) of 3.62 and an AUCs (KATO III, Stomach/Gastric) of 3.2.
